Results published in US6720346B2, “Thiazole benzamide derivatives and pharmaceutical compositions for inhibiting cell proliferation” (Agouron Pharmaceuticals, Inc., priority 2001, dated 2004).

Columns and labels:
CDK2/cyclin A = biological target: T1, CDK2/cyclin A (Homo sapiens, UniProt P24941); experiment: Inhibition of CDK2/cyclin A retinoblastoma kinase activity (Ki; % inhibition); assay type: biochemical; details: at 0.03 μM
T1 construct: made in house; host or cells: CDK2: insect cells (baculovirus); cyclin A: E. coli
How it was run: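 Apparent Ki values came from fitting concentration-dependent activity data to competitive (or competitive tight-binding) models, and % inhibition from single 30 nM screens of library compounds. Activity was measured as ³²P/³³P incorporation from 25 μM ATP into an Rb substrate by 10 or 19 nM CDK2/delta cyclin A at 30 °C over 60–75 min, pH 7.4.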

human CDK4/cyclin D3 = biological target: T2, human CDK4/cyclin D3 (Homo sapiens, UniProt P11802); experiment: Inhibition of CDK4/cyclin D retinoblastoma kinase activity (Ki; % inhibition); assay type: biochemical; details: at 0.03 μM
T2 construct: made in house; host or cells: insect cells co-infected with baculovirus vectors
How it was run: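 Radiometric filter-binding read-out: Rb residues 386-928 phosphorylated by 5 nM CDK4/cyclin D3(1-264) from baculovirus-infected insect cells, 25 μM ATP, HEPES pH 7.4, 30 °C. Run 20 min, or 60 min for tight-binding inhibitors. Screening at 30 nM theoretical compound; apparent Ki by competitive-inhibition fitting.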

HCT-116 cell line = experiment: Inhibition of cell growth, MTT tetrazolium salt assay; assay type: cell-based; details: for HCT-116 % Inhibition at 0.1 μM: HCT-116, at 0.1 μM; for HCT-116 % Inhibition at 0.25 μM: HCT-116, at 0.25 μM
How it was run: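 Growth inhibition was read as MTT-formazan absorbance at 540 nm, after 4 h with 0.2 mg/mL MTT. Before that, HCT-116 cells had been exposed 3–5 days at 37 °C to compounds in 0.5% (v/v) DMSO, added 4 h after plating. 50% and 90% inhibitory concentrations were taken from semi-log concentration–inhibition plots versus vehicle controls.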

T2 sequence (P11802 whole entry): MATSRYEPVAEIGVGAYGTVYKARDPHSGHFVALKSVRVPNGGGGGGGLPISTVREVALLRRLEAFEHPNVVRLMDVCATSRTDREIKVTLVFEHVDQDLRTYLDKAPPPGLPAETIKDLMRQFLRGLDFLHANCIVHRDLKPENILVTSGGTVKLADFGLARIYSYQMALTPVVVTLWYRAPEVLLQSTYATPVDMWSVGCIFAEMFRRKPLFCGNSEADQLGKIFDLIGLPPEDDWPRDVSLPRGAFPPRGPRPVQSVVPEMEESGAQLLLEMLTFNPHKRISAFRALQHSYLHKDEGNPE
T2 sequence (P30281 1-264 partner limits assumed): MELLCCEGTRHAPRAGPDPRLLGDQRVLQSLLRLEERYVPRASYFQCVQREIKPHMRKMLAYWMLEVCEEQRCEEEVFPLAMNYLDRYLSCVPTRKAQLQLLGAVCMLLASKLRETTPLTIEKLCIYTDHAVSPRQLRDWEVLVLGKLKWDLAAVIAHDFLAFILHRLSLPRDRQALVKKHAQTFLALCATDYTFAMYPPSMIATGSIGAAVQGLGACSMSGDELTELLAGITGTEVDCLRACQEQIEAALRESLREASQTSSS

SMILES | CDK2 % Inhibition at 0.03 μM (CDK2/cyclin A) [%] | CDK4 % Inhibition at 0.03 μM (human CDK4/cyclin D3) [%] | HCT-116 % Inhibition at 0.1 μM (HCT-116 cell line) [%] | HCT-116 % Inhibition at 0.25 μM (HCT-116 cell line) [%]
Nc1nc(Nc2ccc(C(=O)NCC3CCCO3)cc2)sc1C(=O)c1c(F)cccc1F (stereo not drawn) [Example G116] | 7 | 24 | 0 | 46
CCOC(=O)CC(C)NC(=O)c1ccc(Nc2nc(N)c(C(=O)c3c(F)cccc3F)s2)cc1 (stereo not drawn) [Example G117] | 4 | 13 | 6 | 55
CC(CNC(=O)c1ccc(Nc2nc(N)c(C(=O)c3c(F)cccc3F)s2)cc1)c1ccccc1 (stereo not drawn) [Example G118] | 11 | 21 | 5 | 48
CN(C)CCCNC(=O)c1ccc(Nc2nc(N)c(C(=O)c3c(F)cccc3F)s2)cc1 [Example G119] | 11 | 31 | 0 | 64
Nc1nc(Nc2ccc(C(=O)NC3CCS(=O)(=O)C3)cc2)sc1C(=O)c1c(F)cccc1F (stereo not drawn) [Example G120] | 14 | 23 | 0 | 54
Nc1nc(Nc2ccc(C(=O)NC3CCSC3=O)cc2)sc1C(=O)c1c(F)cccc1F (stereo not drawn) [Example G121] | 13 | 20 | 0 | 55
Nc1nc(Nc2ccc(C(=O)NC3CC3)cc2)sc1C(=O)c1c(F)cccc1F [Example G123] | −5 | 12 | 4 | 50
Nc1nc(Nc2ccc(C(=O)NCCN3CCOCC3)cc2)sc1C(=O)c1c(F)cccc1F [Example G124] | 10 | 17 | 0 | 64
CC(C)CC(C)NC(=O)c1ccc(Nc2nc(N)c(C(=O)c3c(F)cccc3F)s2)cc1 (stereo not drawn) [Example G125] | 3 | 9 | 13 | 59
CC(C)CNC(=O)c1ccc(Nc2nc(N)c(C(=O)c3c(F)cccc3F)s2)cc1 [Example G126] | 3 | 7 | 0 | 53
CCN(CC)CCCNC(=O)c1ccc(Nc2nc(N)c(C(=O)c3c(F)cccc3F)s2)cc1 [Example G127] | 10 | 29 | 0 | 61
Nc1nc(Nc2ccc(C(=O)NCCCN3CCCCC3)cc2)sc1C(=O)c1c(F)cccc1F [Example G128] | 15 | 41 | 23 | 78
Nc1nc(Nc2ccc(C(=O)NC3CCOC3=O)cc2)sc1C(=O)c1c(F)cccc1F (stereo not drawn) [Example G129] | 11 | 19 | 0 | 51
CCOC(=O)Cc1ccc(NC(=O)c2ccc(Nc3nc(N)c(C(=O)c4c(F)cccc4F)s3)cc2)cc1 [Example G130] | 1 | 11 | 0 | 77
Nc1nc(Nc2ccc(C(=O)NC3CCCC3)cc2)sc1C(=O)c1c(F)cccc1F [Example G131] | 6 | 16 | 0 | 58
Nc1nc(Nc2ccc(C(=O)NCCCN3CCOCC3)cc2)sc1C(=O)c1c(F)cccc1F [Example G132] | 9 | 27 | 0 | 52
CC(CCc1ccccc1)NC(=O)c1ccc(Nc2nc(N)c(C(=O)c3c(F)cccc3F)s2)cc1 (stereo not drawn) [Example G133] | −6 | 13 | 0 | 47
Nc1nc(Nc2ccc(C(=O)NCCNc3ccccc3)cc2)sc1C(=O)c1c(F)cccc1F [Example G134] | 60 | 38 | 1 | 89

SMILES | CDK2 % Inhibition at 0.03 μM (CDK2/cyclin A) [%] | CDK4 % Inhibition at 0.03 μM (human CDK4/cyclin D3) [%] | HCT-116 % Inhibition at 0.1 μM (HCT-116 cell line) [%] | HCT-116 % Inhibition at 0.25 μM (HCT-116 cell line) [%]
CC(C)OCCCNC(=O)c1ccc(Nc2nc(N)c(C(=O)c3c(F)cccc3F)s2)cc1 [Example G135] | 2 | 25 | 0 | 56
CCOCCNC(=O)c1ccc(Nc2nc(N)c(C(=O)c3c(F)cccc3F)s2)cc1 [Example G136] | −4 | 12 | 0 | 49
NC(=O)CCNC(=O)c1ccc(Nc2nc(N)c(C(=O)c3c(F)cccc3F)s2)cc1 [Example G137] | 2 | 25 | 0 | 59
COc1cc(NC(=O)c2ccc(Nc3nc(N)c(C(=O)c4c(F)cccc4F)s3)cc2)ccc1C [Example G138] | 7 | 17 | 0 | 65
Nc1nc(Nc2ccc(C(=O)NC3CCCCC3)cc2)sc1C(=O)c1c(F)cccc1F [Example G139] | 6 | 17 | 0 | 56
Nc1nc(Nc2ccc(C(=O)NCCc3ccccn3)cc2)sc1C(=O)c1c(F)cccc1F [Example G140] | 15 | 19 | 0 | 54
CC(C)CCCC(C)NC(=O)c1ccc(Nc2nc(N)c(C(=O)c3c(F)cccc3F)s2)cc1 (stereo not drawn) [Example G141] | 0 | 11 | 0 | 50
CC(=O)NCCNC(=O)c1ccc(Nc2nc(N)c(C(=O)c3c(F)cccc3F)s2)cc1 [Example G142] | 11 | 20 | 0 | 46
Nc1nc(Nc2ccc(C(=O)NCCCn3ccnc3)cc2)sc1C(=O)c1c(F)cccc1F [Example G143] | 2 | 27 | 0 | 65
Nc1nc(Nc2ccc(C(=O)NCC3CC3)cc2)sc1C(=O)c1c(F)cccc1F [Example G144] | 0 | 11 | 0 | 57
COC(=O)[C@H](C)NC(=O)c1ccc(Nc2nc(N)c(C(=O)c3c(F)cccc3F)s2)cc1 [Example G145] | 19 | 18 | 0 | 68
Nc1nc(Nc2ccc(C(=O)Nc3ccccc3N3CCOCC3)cc2)sc1C(=O)c1c(F)cccc1F [Example G146] | 6 | 7 | 1 | 52
CN1CCCC1CCNC(=O)c1ccc(Nc2nc(N)c(C(=O)c3c(F)cccc3F)s2)cc1 (stereo not drawn) [Example G147] | 10 | 35 | 0 | 65
CCC(C)NC(=O)c1ccc(Nc2nc(N)c(C(=O)c3c(F)cccc3F)s2)cc1 (stereo not drawn) [Example G148] | 5 | 14 | 0 | 48
CN(C)CCNC(=O)c1ccc(Nc2nc(N)c(C(=O)c3c(F)cccc3F)s2)cc1 [Example G149] | 23 | 36 | 10 | 82
CCN1CC(NC(=O)c2ccc(Nc3nc(N)c(C(=O)c4c(F)cccc4F)s3)cc2)CN1CC [Example G150] | 15 | 25 | 0 | 57
CCC(NC(=O)c1ccc(Nc2nc(N)c(C(=O)c3c(F)cccc3F)s2)cc1)c1ccccc1 (stereo not drawn) [Example G151] | 16 | 7 | 27 | 94
CC(C)[C@@H](CO)NC(=O)c1ccc(Nc2nc(N)c(C(=O)c3c(F)cccc3F)s2)cc1 [Example G152] | 16 | 7 | 5 | 53
